Laboratory results taken from publication PMC7840129, “Structural basis for heme-dependent NCoR binding to the transcriptional repressor REV-ERBβ” (Science Advances, 2021).

Tested on: apo 15N-labeled REV-ERBβ LBD
Assay: NMR structural footprinting, 2D [1H,15N]-TROSY-HSQC titration, apo LBD
Type: binding, human
Conditions: apo LBD (200 μM), 298 K, 20 mM Hepes pH 7.4, 50 mM NaCl, 0.5 mM EDTA
Description: To support our ITC results, we performed solution NMR structural footprinting by titrating NCoR ID1 or ID2 peptide into ^15N-labeled REV-ERBβ LBD. For this analysis, we used backbone NMR chemical shift assignments that we previously reported for apo LBD ([18]) and collected three-dimensional (3D) NMR data to obtain backbone NMR chemical shift assignments for heme-bound LBD (fig. S4). […] To qualitatively assess the strength of each interaction, we analyzed the exchange regime of NMR chemical shift changes on the NMR time scale. […]
To generate heme-bound protein, 1.25 molar equivalents of heme prepared in 0.2 M NaOH as a 50 mM stock were added to ^15N-labeled REV-ERBβ LBD (200 μM) or ^2H-,^15N-,^13C-labeled REV-ERBβ LBD (1 mM) in Hepes buffer [20 mM Hepes (pH 7.4), 50 mM NaCl, and 0.5 mM EDTA]. NMR data were collected at 298 K on a Bruker 700-MHz NMR system equipped with a QCI CryoProbe, processed using NMRFx ([40]), and analyzed using NMRViewJ ([41]). […] 2D [^1H,^15N]-TROSY-HSQC data were collected for heme-bound ^15N-labeled REV-ERBβ LBD at 298 K with addition of NCoR ID1 or ID2 peptides prepared as 50 mM stock in DMSO and analyzed in NMRViewJ. […]

Molecule | NMR exchange regime on peptide titration
Ac-RTHRLITLADHICQIITQDFARN-NH2 [NCoR ID1 peptide] | slow
CC[C@H](C)[C@H](NC(=O)[C@H](CC(=O)O)NC(=O)[C@H](CCC(=O)O)NC(=O)[C@H](CC(C)C)NC(=O)CNC(=O)[C@H](CC(C)C)NC(=O)[C@H](CC(N)=O)NC(=O)[C@H](CO)NC(=O)[C@H](C)NC(=O)[C@@H]1CCCN1C(=O)[C@H](CC(=O)O)NC(C)=O)C(=O)N[C@H](C(=O)N[C@@H](CCCNC(=N)N)C(=O)N[C@@H](CCCCN)C(=O)N[C@@H](C)C(=O)N[C@@H](CC(C)C)C(=O)N[C@@H](CCSC)C(=O)NCC(=O)N[C@@H](CO)C(=O)N[C@@H](Cc1ccccc1)C(=O)N[C@@H](CC(=O)O)C(=O)N[C@@H](CC(=O)O)C(=O)N[C@@H](CCCCN)C(N)=O)[C@@H](C)CC [NCoR ID2 peptide] | fast
